Experimental findings from patent US20140004122A1, “METHODS FOR TREATING OR PREVENTING CHOLESTEROL RELATED DISORDERS” (AMGEN INC., priority 2011, published 2014) are described below.

The assay relates to hypercholesterolemic subjects with a 10 year Framingham risk score of 10% or less. As to the kind of experiment: 12 week monotherapy dose-ranging study (Example 24). Format: in vivo, human. As to the method:
Ezetimibe was not blinded. The end-of-study visit and the last estimation of lipids was at week 12 for subjects on Q4W IP schedule or on ezetimibe and week 14 for subjects on Q2W IP schedule.
Males and females, ≧18 to ≦75 years of age, were eligible for this study. Fasting LDL-C was ≧100 mg/dL (2.6 mmol/L) and <190 mg/dL (4.9 mmol/L) and fasting triglycerides ≦400 mg/dL (4.5 mmol/L) by central laboratory at screening.
The primary endpoint was the percent change from baseline in LDL-C at week 12. Secondary endpoints included percent changes in apolipoprotein B (ApoB), lipoprotein (a) (Lp(a)), and in the ratio of total cholesterol to high-density lipoprotein (HDL)-C. Tolerability and safety were also evaluated.

In the case of `O=C1[C@H](CC[C@H](O)c2ccc(F)cc2)[C@@H](c2ccc(O)cc2)N1c1ccc(F)cc1` [Ezetimibe, ezetimibe, reference compound], the “percent change from baseline in LDL-C” value (week 12, final data, ezetimibe QD PO) stood at 14%. Besides, under “week 12, Ezetimibe QD (N = 45)”, the “Least squares mean percent change from baseline (%) in LDL-C” value was −14.26%.
